Assays:
[1] = tested on: TRPC6; test: Western analysis of TRPC6 protein expression in arteries; type: cell-based, rat; settings: cerebral arterial SMCs
Protocol: (§1) Western Analysis. Arterial segments were homogenized in lysis buffer (5 minutes, 4° C.) containing (in mM): 40 CAPS, 1 DL-Dithiothreitol (DTT), 10 EDTA, 15 MgCl2, 115 NaCl, 1 NaOrthovanadate, 1 NaF, 2.5 Urea, and 0.25% deoxychlorate, 10% glycerol, 1% NP-40, 0.2% SDS, and 1:50 mammalian protease inhibitor cocktail (Sigma, St. Louis, Mo., USA). Equal amounts of sample protein were separated on a 10% polyacrylamide gel and transferred to a nitrocellulose membrane. The membranes were exposed to a TRPC3 or TRPC6 polyclonal antibody (anti-rabbit 1:200 dilution, Alomone Labs, Jerusalem, Israel) and a […] (GAPDH) monoclonal antibody (anti-mouse, 1:1000 dilution, Chemicon Labs, Temecula, Calif., USA). Alexa-Fluor 680® goat anti-rabbit (Molecular Probes, Eugene, Oreg., USA) and IRDyeTM800 anti-mouse (Rockland Immunochemicals, Gilbertsville, Pa., USA) were used to fluorescently label the TRPC3 and GAPDH antibodies respectively. The density of signals specific for the TRPC3 and GAPDH bands in a given lane on a membrane were measured after scanning the membrane with an Odyssey® infared imaging system (Li-COR Biosciences, Lincoln, Nebr., USA). Quantified amounts were normalized to a total protein amount lane on the polyacrylamide gel.
Oligodeoxynucleotide Sequences and Reverse Permeabilization. […]

[2] = tested on: TRPC3; test: Western analysis of TRPC3 protein expression in arteries; type: cell-based, rat
Protocol: as §1
Oligodeoxynucleotide Sequences and Reverse Permeabilization. TRPC6 sense and antisense oligodeoxynucleotides (ODN's) were designed as previously described (Welsh et al 2002 Circ Res 90, 248-250) and were as follows: sense, 5′-[…]-3′ (SEQ ID: 3) and 5′-GCACACGCAGCCTCTTCAC-3′ (SEQ ID: 4) antisense, 5′-[…]-3′ (SEQ ID: 5) and 5′-[…]-3′ (SEQ ID: 6). TRPC3 sense and antisense ODN's were designed based on the rat TRPC3 gene (Ohki et al 2000 J Biol Chem 275: 39055-39060) and are as follows: sense, 5′-[…]-3′ (SEQ ID: 7) and 5′-[…]-3′ (SEQ ID: 8); anti-sense, 5′-[…]-3′ (SEQ ID: 9) and 5′-[…]-3′ (SEQ ID: 10). The last five bases on the 5′ and 3′ end were phosphorothioated in order to limit ODN degradation. […]

5′-GAGAACCATGAACTGGAATA-3′ (SEQ ID: 9) and 5′-ACGACCAACACGACCAGACA-3′ (SEQ ID: 10) (phosphorothioate ends, further chemistry not given here) [TRPC3 antisense, antisense ODNs based on the rat TRPC3 gene; last five bases on the 5′ and 3′ end phosphorothioated]
effect on the expression of TRPC6 [1]: no effect | TRPC3 expression reduced (Western blots of arterial lysates) ([2]; TRPC3 antisense compared with sense treated arteries): ~60% | TRPC3 to GAPDH ratio less in antisense compared to sense treated samples ([2]; after 3 days of organ culture, n=4 each): 42.5±11.4%
